{
  "source": "patent US20260226493A1",
  "about": "“HERBICIDE RESISTANT PLANTS” (SYNGENTA CROP PROTECTION AG, priority 2023, published 2026)",
  "test_system": "Cryptosporidium andersoni BioA",
  "assay": "BioA enzyme activity with DMSO or herbicide in vitro",
  "assay_type": "biochemical",
  "conditions": "0.5 μM, spermidine in substrate mix",
  "excerpt": "A pet-24 plasmid containing a DNA sequence encoding each identified variant mutant of BIO3-BIO1 derived from Arabidopsis thaliana from example 5 above, as shown in Table 13 below and as shown in full in SEQ ID NOs: 15 to 155, codon-optimised for expression in E. coli, with an N-terminal 6×His-tag and thrombin cleavage site and under control of a T7 promoter, and was synthesised by Twist Bioscience, in a similar manner to SEQ ID NO:311. These plasmids were then expressed in E. coli BL21 (DE3) bioA with 50 μg/mL kanamycin and 25 μg/mL chloramphenicol selection. Overnight cultures grown at 37° C. were used to inoculate 8×500 mL AIM in shake flasks at a ratio of 1:100. Cultures were grown at 37° C., 200 rpm for 3.5 hours and then overnight at 20° C. Cells were harvested by centrifugation for 30 minutes at 10 000 g. Cells were stored at −80° C. until extraction. 30 g of cell pellet from was thawed in 120 mL of IMAC buffer A (20 mM HEPES pH7.5, 25 mM imidazole, 500 mM sodium chloride, 0.15 mM pyridoxal phosphate, 0.5 mM TCEP, 1× complete Protease Inhibitor Tablet (Roche)). The resuspension was passed through a cell disrupter at 18 000 PSI and centrifuged at 50 000 g for 25 minutes at 4° C. The His-tagged BIO3-BIO1 protein was purified from the extract supernatant on an AKTA avant chromatography system (Cytiva) using a HisTrap FF column and eluted in IMAC buffer B ((20 mM HEPES pH7.5, 500 mM imidazole, 500 mM sodium chloride, 0.15 mM pyridoxal phosphate, 0.5 mM TCEP) followed by SEC using a HiLoad 26/60 Superdex200 column in SEC buffer (25 mM HEPES pH7.5, 150 mM sodium chloride, 0.15 mM pyridoxal phosphate, 0.5 mM TCEP). Protein concentration was measured and calculated using the absorbance at 280 nm. Extracts were diluted 1 in 4 and 10 uL was analysed by SDS PAGE.\nTo measure BIO3-BIO1 mutant enzyme activity in the presence of herbicide, herbicides were incubated with 20 μL of enzyme mix (100 mM EPPS pH 8.6, 0.1 mM pyridoxal phosphate, 0.1 mg/mL BSA, 50 nM BIO3-BIO1 enzyme) for 10 minutes at 20° C. in a well of a 96-well half-area black plate, followed by the addition of 20 μL of substrate mix (final concentration of 100 mM EPPS pH 8.6, 0.1 mM pyridoxal phosphate, 0.1 mg/mL BSA, 100 μM spermidine, 20 μM KAPA, 100 mM NaCO3) and further incubation for 75 minutes at 20° C. The reaction was terminated by the addition of 50 μL of derivatisation mix (final concentration of 250 mM borate NaOH pH 9.4, 3.6 mM o-phthalaldehyde, 7 mM β-mercaptoethanol, 17% (v/v) ethanol, 3.6% (v/v) methanol). The fluorescent product produced by the reaction of DAPA with o-phthalaldehyde and 7 mM β-mercaptoethanol was measured at 470 nm after excitation at 410 nm. The percentage inhibition was calculated as the activity in the presence of one of three concentrations of each herbicide compound A to M (note that the compounds labelled as A to M are identified hereinabove in the relevant section of the description) as a percentage of the activity in DMSO (Table 12 and 13). The percentage activity versus WT was also calculated and is shown in Table 13 and 14 (NT indicates mutation not tested in table 13, note that these mutations are tested at different compound concentrations for compounds L, M and C, and the results are shown in table 14).\nProtein of Escherichia coli BioA (SEQ ID NO:159), Pantoea ananatis BioA (SEQ ID NO:167), Streptomyces viridochromogenes BioA (SEQ ID NO:170), Cryptosporidium andersoni BioA (SEQ ID NO:160), Stenotrophomonas maltophilia BioA (SEQ ID NO:171), Chroococcidiopsis BioA (SEQ ID NO:184), Pedobacter hartonius BioA (SEQ ID NO:181), Chitinophaga filiformis BioA (SEQ ID NO:180), Tenacibaculum adriaticum BioA (SEQ ID NO:185) and Bacillus subtilis BioA (SEQ ID NO:166) was prepared using the method in Example 6. BioA enzyme activity in the presence of herbicide or DMSO in vitro for each of the proteins was assayed according to the enzyme assay method in Example 6, except in some reactions spermidine was replaced with 2 mM S-Adenosyl methionine.",
  "data": [
    {"smiles": "CCn1c(Cn2ccc(C(F)(F)F)n2)cc(=O)c(C(=O)O)c1-c1ccc(Cl)c(Cl)c1", "note": "[Compound L, 2-(3,4-dichlorophenyl)-1-ethyl-4-oxo-6-[[3-(trifluoromethyl)pyrazol-1-yl]methyl]pyridine-3-carboxylic acid]", "values": [
      {"measurement": "% Inhibition relative to DMSO treatment", "value": 0, "unit": "%"}
    ]}
  ]
}
